Reference: PubChem BioAssay AID1963441 (Molecular Pharmacology Branch, DTP, NCI, 2024)
Where “and” joins values, the source holds several entries; their conditions need not be identical. Equal entries are not always repeated. One block for each compound: values may come before it.

Test system: NCI-H1876 complex spheroid growth, % test/control
Experiment: Anticancer human tumor NCI-H1876 cell line growth inhibition [Asc];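 note: compound exposure lasted 7 days starting three days after seeding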;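 for viability, T/C: 100% = DMSO vehicle control wells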
Conditions: for viability, T/C: stronger effect = lower value
Method in brief: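 Tumor cells were grown as multicellular spheroids with stromal HUVEC and mesenchymal stem cells and treated singly or in combination. Concentrations fell in half-log steps from the clinical Cmax, or from 10 microM where none was known.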

IC50 (curve of first compound, second compound 0.00316 µM): > 100 nM
IC50 (curve of first compound, second compound 0.01 µM): > 100 nM
IC50 (curve of first compound, second compound 0.0316 µM): > 100 nM
IC50 (curve of first compound, second compound 0.1 µM): > 100 nM
IC50 (curve of first compound, second compound 0.316 µM): > 100 nM
IC50 (curve of first compound, second compound 1 µM): > 100 nM
SMILES: NC1CCC(NC2CC2c2ccccc2)CC1 (stereo not drawn) + CNC(C)C(=O)NC1CN(S(=O)(=O)c2cccc(S(=O)(=O)N3CCC4CCC(C(=O)NC(c5ccccc5)c5ccccc5)N4C(=O)C(NC(=O)C(C)NC)C3)c2)CCC2CCC(C(=O)NC(c3ccccc3)c3ccccc3)N2C1=O
viability, T/C (second compound 0.00316 µM, first compound 0.000316 µM): 119%
viability, T/C (second compound 0.00316 µM, first compound 0.001 µM): 118%
viability, T/C (second compound 0.00316 µM, first compound 0.00316 µM): 132%
viability, T/C (second compound 0.00316 µM, first compound 0.01 µM): 133%
viability, T/C (second compound 0.00316 µM, first compound 0.0316 µM): 131%
viability, T/C (second compound 0.00316 µM, first compound 0.1 µM): 119%
viability, T/C (second compound 0.01 µM, first compound 0.000316 µM): 119%
viability, T/C (second compound 0.01 µM, first compound 0.001 µM): 121%
viability, T/C (second compound 0.01 µM, first compound 0.00316 µM): 121%
viability, T/C (second compound 0.01 µM, first compound 0.01 µM): 124%
viability, T/C (second compound 0.01 µM, first compound 0.0316 µM): 128%
viability, T/C (second compound 0.01 µM, first compound 0.1 µM): 140%
viability, T/C (second compound 0.0316 µM, first compound 0.000316 µM): 116%
viability, T/C (second compound 0.0316 µM, first compound 0.001 µM): 118%
viability, T/C (second compound 0.0316 µM, first compound 0.00316 µM): 138%
viability, T/C (second compound 0.0316 µM, first compound 0.01 µM): 125%
viability, T/C (second compound 0.0316 µM, first compound 0.0316 µM): 127%
viability, T/C (second compound 0.0316 µM, first compound 0.1 µM): 127%
viability, T/C (second compound 0.1 µM, first compound 0.000316 µM): 121%
viability, T/C (second compound 0.1 µM, first compound 0.001 µM): 128%
viability, T/C (second compound 0.1 µM, first compound 0.00316 µM): 128%
viability, T/C (second compound 0.1 µM, first compound 0.01 µM): 128%
viability, T/C (second compound 0.1 µM, first compound 0.0316 µM): 128%
viability, T/C (second compound 0.1 µM, first compound 0.1 µM): 121%
viability, T/C (second compound 0.316 µM, first compound 0.000316 µM): 131%
viability, T/C (second compound 0.316 µM, first compound 0.001 µM): 113%
viability, T/C (second compound 0.316 µM, first compound 0.00316 µM): 118%
viability, T/C (second compound 0.316 µM, first compound 0.01 µM): 130%
viability, T/C (second compound 0.316 µM, first compound 0.0316 µM): 143%
viability, T/C (second compound 0.316 µM, first compound 0.1 µM): 124%
viability, T/C (second compound 1 µM, first compound 0.000316 µM): 122%
viability, T/C (second compound 1 µM, first compound 0.001 µM): 129%
viability, T/C (second compound 1 µM, first compound 0.00316 µM): 136%
viability, T/C (second compound 1 µM, first compound 0.01 µM): 131%
viability, T/C (second compound 1 µM, first compound 0.0316 µM): 137%
viability, T/C (second compound 1 µM, first compound 0.1 µM): 143%

IC50 (curve of compound): > 10000 nM
SMILES: C=CC(=O)N1CCN(c2nc(=O)n(-c3c(C)ccnc3C(C)C)c3nc(-c4c(O)cccc4F)c(F)cc23)C(C)C1 (stereo not drawn)
viability, T/C (compound 0.0316 µM): 116% and 95.9% and 101%
viability, T/C (compound 0.1 µM): 99.4% and 96% and 86.8%
viability, T/C (compound 0.316 µM): 106% and 93.2% and 97.1%
viability, T/C (compound 1 µM): 101% (2×) and 100%
viability, T/C (compound 3.16 µM): 113% and 108% and 106%
viability, T/C (compound 10 µM): 110% and 106% and 109%

IC50 (curve of compound): > 10000 nM
SMILES: O=C(c1cc(Cc2n[nH]c(=O)c3ccccc23)ccc1F)N1CCN(C(=O)C2CC2)CC1
viability, T/C (compound 0.0316 µM): 94.3% and 103% and 108%
viability, T/C (compound 0.1 µM): 84.8% and 92.7% and 94%
viability, T/C (compound 0.316 µM): 105% and 102% (2×)
viability, T/C (compound 1 µM): 115% and 118% and 99.5%
viability, T/C (compound 3.16 µM): 96.9% and 121% and 98.1%
viability, T/C (compound 10 µM): 75.5% and 85.2% and 68.7%

IC50 (curve of first compound, second compound 0.00949 µM): 719 nM
IC50 (curve of first compound, second compound 0.03 µM): 741 nM
IC50 (curve of first compound, second compound 0.0949 µM): 690 nM
IC50 (curve of first compound, second compound 0.3 µM): 718 nM
IC50 (curve of first compound, second compound 0.949 µM): 614 nM
IC50 (curve of first compound, second compound 3 µM): 543 nM
SMILES: COc1c(OCCCN2CCOCC2)ccc2c3n(c(=NC(=O)c4cnc(N)nc4)nc12)CCN3 + CCN1C(C(=O)NC23CCC(C(=O)O)(CC2)CC3)C(c2cccc(Cl)c2F)C2(C(=O)Nc3cc(Cl)ccc32)C12CCCCC2
viability, T/C (second compound 0.00949 µM, first compound 0.00316 µM): 96.8%
viability, T/C (second compound 0.00949 µM, first compound 0.01 µM): 93.6%
viability, T/C (second compound 0.00949 µM, first compound 0.0316 µM): 101%
viability, T/C (second compound 0.00949 µM, first compound 0.1 µM): 72.7%
viability, T/C (second compound 0.00949 µM, first compound 0.316 µM): 66.4%
viability, T/C (second compound 0.00949 µM, first compound 1 µM): 44%
viability, T/C (second compound 0.03 µM, first compound 0.00316 µM): 133%
viability, T/C (second compound 0.03 µM, first compound 0.01 µM): 96%
viability, T/C (second compound 0.03 µM, first compound 0.0316 µM): 94.2%
viability, T/C (second compound 0.03 µM, first compound 0.1 µM): 70.6%
viability, T/C (second compound 0.03 µM, first compound 0.316 µM): 59.8%
viability, T/C (second compound 0.03 µM, first compound 1 µM): 45.8%
viability, T/C (second compound 0.0949 µM, first compound 0.00316 µM): 99.3%
viability, T/C (second compound 0.0949 µM, first compound 0.01 µM): 96.2%
viability, T/C (second compound 0.0949 µM, first compound 0.0316 µM): 90.8%
viability, T/C (second compound 0.0949 µM, first compound 0.1 µM): 77.5%
viability, T/C (second compound 0.0949 µM, first compound 0.316 µM): 67.3%
viability, T/C (second compound 0.0949 µM, first compound 1 µM): 42.1%
viability, T/C (second compound 0.3 µM, first compound 0.00316 µM): 96.8%
viability, T/C (second compound 0.3 µM, first compound 0.01 µM): 96%
viability, T/C (second compound 0.3 µM, first compound 0.0316 µM): 93%
viability, T/C (second compound 0.3 µM, first compound 0.1 µM): 70.6%
viability, T/C (second compound 0.3 µM, first compound 0.316 µM): 65.9%
viability, T/C (second compound 0.3 µM, first compound 1 µM): 44.1%
viability, T/C (second compound 0.949 µM, first compound 0.00316 µM): 108%
viability, T/C (second compound 0.949 µM, first compound 0.01 µM): 105%
viability, T/C (second compound 0.949 µM, first compound 0.0316 µM): 92.4%
viability, T/C (second compound 0.949 µM, first compound 0.1 µM): 75.4%
viability, T/C (second compound 0.949 µM, first compound 0.316 µM): 58.7%
viability, T/C (second compound 0.949 µM, first compound 1 µM): 43.9%
viability, T/C (second compound 3 µM, first compound 0.00316 µM): 106%
viability, T/C (second compound 3 µM, first compound 0.01 µM): 103%
viability, T/C (second compound 3 µM, first compound 0.0316 µM): 81.2%
viability, T/C (second compound 3 µM, first compound 0.1 µM): 80.1%
viability, T/C (second compound 3 µM, first compound 0.316 µM): 64.7%
viability, T/C (second compound 3 µM, first compound 1 µM): 35.7%
